{"source": "paper PMC12049818", "about": "“Identification of NUV-244 as a PNPLA3 I148M degrading small molecule” (iScience, 2025)", "key": {"PNPLA3 I148M-tagRFP": {"target": "T1, PNPLA3 I148M-tagRFP (Homo sapiens, UniProt Q9NST1, I148M)", "T1 construct": "host or cells: Huh7", "T1 sequence (Q9NST1 1-481 I148M)": "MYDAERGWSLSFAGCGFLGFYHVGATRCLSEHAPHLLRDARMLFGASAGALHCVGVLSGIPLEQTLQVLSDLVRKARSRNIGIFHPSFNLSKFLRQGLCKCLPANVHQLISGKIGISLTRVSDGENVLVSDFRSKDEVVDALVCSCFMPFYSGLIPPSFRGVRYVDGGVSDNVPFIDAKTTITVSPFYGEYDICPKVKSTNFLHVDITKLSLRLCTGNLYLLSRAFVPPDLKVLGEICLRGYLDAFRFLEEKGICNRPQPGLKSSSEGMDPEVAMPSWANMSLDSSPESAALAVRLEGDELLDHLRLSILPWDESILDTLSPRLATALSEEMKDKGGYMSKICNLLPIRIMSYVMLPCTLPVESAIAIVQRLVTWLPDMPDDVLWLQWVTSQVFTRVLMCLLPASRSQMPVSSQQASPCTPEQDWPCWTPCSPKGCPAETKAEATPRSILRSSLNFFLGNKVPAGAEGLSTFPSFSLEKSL", "experiment": "Western blot anti-PNPLA3, Huh7 PNPLA3 I148M-tagRFP", "type": "cell-based", "details": "5µM, 24h", "procedure": "For SDS-PAGE and subsequent western blotting cells were harvested in 1x lysis buffer (50 mM Tris-Cl, pH 7.5, 150 mM NaCl, 1 mM EDTA, 1% Triton X-100) supplemented with complete mini protease inhibitor cocktail (Roche). Total protein concentration of samples was determined with a Bicinchoninic Acid (BCA) protein assay. Cell lysates were boiled for 10 min at 99°C with 1x NuPAGE LDS Sample Buffer and loaded onto a 4-12% Tris-Glycine SDS-PAGE gel. For immunoblotting proteins were transferred to a nitrocellulose membrane (0.2 μm pore size, Schleicher & Schuell) and blocked with Intercept (PBS) Blocking buffer (Licor), incubated with primary antibodies anti-PNPLA3 (1:500, C-8 Santa Cruz, SC-390252), anti-PNPLA3 (1:1000, Millipore, MABS2174) and anti-HSP90 (1:1000, Cell Signaling, #4877), and subsequently incubated with secondary antibodies IRDye 680 or IRDye 800 (1:2000; LI-COR Biosciences). Infrared signal was detected using the Odyssey imaging system (Licor). […]\na. Huh7, PNPLA3 I148M b. Huh7, PNPLA3 I148M-tagRFP […]\ncontrol NUV-244 control NUV-244\nSupplemental Fig. 9: Western Blot NUV-244 a. […] PNPLA3 bands at 53kDa (unmodified in a.) or 80 kDa (PNPLA3 I148M-tagRFP) were quantified (signal above local background, normalized to loading control using LICOR Odyssey CLx / Image Studio) on two independent Western Blots and percent of intensity compared to DMSO controls calculated (Mean +/ - Stdev). […]"}, "PNPLA2": {"target": "T2, PNPLA2 (Homo sapiens, UniProt Q96AD5)", "T2 sequence (Q96AD5 1-504)": "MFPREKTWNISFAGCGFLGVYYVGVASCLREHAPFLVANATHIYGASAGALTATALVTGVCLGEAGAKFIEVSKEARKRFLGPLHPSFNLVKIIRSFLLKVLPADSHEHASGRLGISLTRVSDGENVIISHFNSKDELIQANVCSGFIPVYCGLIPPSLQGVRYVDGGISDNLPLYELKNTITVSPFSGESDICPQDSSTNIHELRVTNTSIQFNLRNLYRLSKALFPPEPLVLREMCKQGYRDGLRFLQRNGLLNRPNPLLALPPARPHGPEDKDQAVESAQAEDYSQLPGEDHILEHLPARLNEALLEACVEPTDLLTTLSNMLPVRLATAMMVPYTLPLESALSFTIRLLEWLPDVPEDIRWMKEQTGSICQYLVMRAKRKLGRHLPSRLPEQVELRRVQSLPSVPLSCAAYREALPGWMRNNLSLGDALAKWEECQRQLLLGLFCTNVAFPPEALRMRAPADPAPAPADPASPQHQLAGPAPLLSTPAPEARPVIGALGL", "experiment": "Huh7 PNPLA2 immunofluorescence counter assay (PNPLA2 on lipid droplets)", "type": "cell-based", "design": "immunofluorescence against endogenous PNPLA2 on lipid droplets in Huh7 cells; endogenous in cells; host or cells: Huh7", "details": "for EC50: read-out: EC50 Huh7, PNPLA2 IF", "procedure": "These efforts led to the identification of NUV-244, a thiazolecarboxamide (Figure 2A).\nCells were fixed with 4% paraformaldehyde for 15 minutes at room temperature. Cells were blocked with 0.2 M glycine, 0.1 mg/mL saponin, and 30 mg/mL bovine serum albumin (BSA) (all Sigma Aldrich) in PBS for 1 hour. Cells were washed 1x with washing buffer (0,1 mg/ml saponin + 1 mg/ml Bovine serum albumin) using a Blue Washer (Blue Cat Bio). Mouse anti-human ADPN (PNPLA3, C-8, #sc-390252, Santa Cruz) and rabbit anti-human PNPLA2 (Sigma Aldrich, #HPA055173-25UL) primary antibodies and appropriate secondary antibodies conjugated with Alexa-Fluor 647 (Jackson ImmunoResearch) were used. All antibodies were diluted in 0.1 mg/ml Saponin + 1 mg/ml Bovine serum albumin. Incubation with primary antibodies was over night at 4°C. Cells were stained simultaneously with the secondary antibody and Hoechst 33342 (final 2 μg/ml, Biotium) for 1h at room temperature in the dark. For Staining of lipid droplets 38 nM BODIPY was used for 30 minutes at room temperature.\nImages were acquired by an Opera Phenix confocal spinning disc microscope system (Revvity, Waltham, MA, USA) with a 20x or 40x water objective at 405 nm (Hoechst), 488 nm (BODIPY) and 647 nm. Quantification was carried out with the Harmony (Revvity, Waltham, MA, USA) or MetaXpress software (Molecular Devices). Normalization, quality control, and fitting curves for EC50 determination of tested compounds were performed with Genedata Screener® for high-content screening and Genedata Condoseo modules (Genedata AG, Basel, Switzerland)."}}, "note": "Like-named read-outs stand apart in the source and are kept apart here.", "data": [{"compound": "Cc1cccc(Cc2nc(C)c(C(=O)Nc3cc(O)ccc3Cl)s2)c1", "note": "[NUV-244]", "values": [{"measurement": "PNPLA3 band intensity printed on the blot shown (DMSO 100%)", "setting": "PNPLA3 I148M-tagRFP; single blot shown in Fig. S9b", "value": 72, "unit": "%"}, {"measurement": "PNPLA3 band, percent of intensity compared to DMSO controls", "setting": "PNPLA3 I148M-tagRFP; two independent Western Blots, Mean +/- Stdev", "value": "46+/-4%"}, {"measurement": "effect on PNPLA2 staining on lipid droplets", "setting": "PNPLA2; 1μM, Huh7", "value": "no effect"}, {"measurement": "EC50", "setting": "PNPLA2; HTS batch (hit)", "value": "> 18", "unit": "µM"}, {"measurement": "effect on PNPLA2 localization to lipid droplets", "setting": "PNPLA2; Huh7 cells, dose-response", "value": "no effect"}, {"measurement": "EC50", "setting": "PNPLA2; resynthesis batch", "value": "> 17", "unit": "µM"}, {"measurement": "EC50 Huh7 PNPLA2 IF (resynthesis)", "setting": "PNPLA2; resynthesis batch, result in words", "value": "no activity"}]}]}
